Measurements taken from patent US20240190879A1, “FUSED BICYCLIC COMPOUNDS USEFUL FOR MODULATING NUCLEIC ACID SPLICING” (REMIX THERAPEUTICS INC., priority 2020, published 2024).

Columns and labels:
Assay type in all cases: cell-based
Target C CJ mRNA = assay: Gene panel canonical junction qPCR assay, Target C; conditions: larger gene panel; concentration having 50% response in CJ decrease; read-out: Target C IC50 (decrease in CJ mRNA levels)
Protocol: (§1) Compounds described herein were used to modulate RNA transcript abundance in cells. The expression of a target mRNA was measured by detecting the formation of an exon-exon junction in the canonical transcript (CJ). A compound mediated exon-inclusion event was detected by observing an increase in formation of a new junction with an alternative exon (AJ). Real-time qPCR assays were used to detect these splicing switches and interrogate the potency of various compounds towards different target genes. A high-throughput real time quantitative PCR (RT-qPCR) assay was developed to measure these two isoforms of the mRNA (CJ and AJ) for an exemplary gene, HTT, together with a control housekeeping gene, GAPDH or GUSB or PPIA, used for normalization. Briefly, the A673 or K562 cell line was treated with various compounds described herein (e.g., compounds of Formula (I)). After treatment, the levels of the HTT mRNA targets were determined from each sample of cell lysate by cDNA synthesis followed by qPCR.
(§2) The data analysis was performed by first determining the ΔCt vs the housekeeper gene. This ΔCt was then normalized against the DMSO control (ΔΔCt) and converted to RQ (relative quantification) using the 2^(−ΔΔCt) equation. The RQ were then converted to a percentage response by arbitrarily setting an assay window of 3.5 ΔCt for HTT-CJ and an assay window of 9 ΔCt for HTT-AJ. […] The percentage response was then fitted to the 4 parametric logistic equation to evaluate the concentration dependence of compound treatment. The increase in AJ mRNA is reported as AC50 (compound concentration having 50% response in AJ increase) while the decrease in CJ mRNA levels is reported as IC50 (compound concentration having 50% response in CJ decrease).
(§3) Additional studies were carried out for a larger panel of genes using the protocol provided above. The junction between flanking upstream and downstream exons was used to design canonical junction qPCR assays. At least one of the forward primer, reverse primer or the CY5-labeled 5′ nuclease probe (with 3′ quencher such as ZEN/Iowa Black FQ) was designed to overlap with the exon junction to capture the CJ mRNA transcript. BLAST was used to confirm the specificity of the probeset and parameters such as melting temperature, GC content, amplicon size, and primer dimer formation are considered during their design. Data for the decrease in CJ mRNA levels for three exemplary genes (HTT, SMN2, and Target C) analyzed in this panel are reported as IC50 (compound concentration having 50% response in CJ decrease).

[1] = test system: HTT mRNA canonical junction (CJ); assay: RT-qPCR splicing assay, HTT canonical junction (CJ) mRNA decrease; conditions: A673 or K562 cell line, 24 hours treatment; concentration having 50% response in CJ mRNA decrease
Protocol: as §1
(§4) The A673 cell line was cultured in DMEM with 10% FBS. Cells were diluted with full growth media and plated in a 96-well plate (15,000 cells in 100 ul media per well). The plate was incubated at 37° C. with 5% CO2 for 24 hours to allow cells to adhere. An 11-point 3-fold serial dilution of the compounds was made in DMSO then diluted in media in an intermediate plate. Compounds were transferred from the intermediate plate to the cell plate with the top dose at a final concentration of 10 uM in the well. Final DMSO concentration was kept at or below 0.25%. The cell plate was returned to the incubator at 37° C. with 5% CO2 for an additional 24 hours.
(§5) The K562 cell line was cultured in IMDM with 10% FBS. For K562, cells were diluted with full growth media and plated in either a 96-well plate (50,000 cells in 50 uL media per well) or a 384-well plate (8,000-40,000 cells in 45 uL media per well). An 11-point 3-fold serial dilution of the compounds were made in DMSO then diluted in media in an intermediate plate. Compound was transferred from the intermediate plate to the cell plate with the top dose at a final concentration of 10 uM in the well. Final DMSO concentration was kept at or below 0.25%. Final volume was 100 uL for 96-well plate and 50 uL for 384-well plate. The cell plate was then placed in an incubator at 37° C. with 5% CO2 for 24 hours.
(§6) The cells were then gently washed with 50 uL-100 uL cold PBS before proceeding to addition of lysis buffer. 30 uL-50 uL of room temperature lysis buffer with DNAse I (and optionally RNAsin) was added to each well. Cells were shaken/mixed thoroughly at room temperature for 5-10 minutes for lysis to take place and then 3 uL-5 uL of room temperature stop solution was added and wells were shaken/mixed again. After 2-5 minutes, the cell lysate plate was transferred to ice for RT-qPCR reaction setup. The lysates could also be frozen at −80° C. for later use.
(§7) In some cases, a direct lysis buffer was used. An appropriate volume of 3×lysis buffer (10 mM Tris, 150 mM NaCl, 1.5%-2.5% Igepal and 0.1-1 U/uL RNAsin, pH 7.4) was directly added to either K562 or A673 cells in media and mixed by pipetting 3 times. The plates were then incubated at room temperature with shaking/rocking for 20-50 minutes to allow for lysis to take place. After this time, the cell lysate plate was transferred to ice to set up for the RT-qPCR reactions. The lysates could also be frozen at −80° C. for later use.
(§8) To set up 10 uL RT-qPCR reactions, cell lysates were transferred to 384-well qPCR plates containing the master mix according to the table below. The plates were sealed, gently vortexed, and spun down before the run. The volumes were adjusted accordingly in some instances where the reaction was carried in 20 uL. The table below summarizes the components of the RT-qPCR reactions:
(§9) The RT-qPCR reaction was performed using a QuantStudio (ThermoFisher) under the following fast cycling conditions. […]

[2] = test system: HTT mRNA alternative junction (AJ); assay: RT-qPCR splicing assay, HTT alternative junction (AJ) mRNA increase; conditions: A673 or K562 cell line, 24 hours treatment; concentration having 50% response in AJ mRNA increase
Protocol: as §1, §4, §5, §6, §7, §8, §9

HTT CJ mRNA = assay: Gene panel canonical junction qPCR assay, HTT; conditions: larger gene panel; concentration having 50% response in CJ decrease; read-out: HTT IC50 (decrease in CJ mRNA levels)
Protocol: as §1, §2, §3

SMN2 CJ mRNA = assay: Gene panel canonical junction qPCR assay, SMN2; conditions: larger gene panel; concentration having 50% response in CJ decrease; read-out: SMN2 IC50 (decrease in CJ mRNA levels)
Protocol: as §1, §2, §3

SMILES	IC50 (Target C CJ mRNA) [µM]	AC50 [1] [µM]	AC50 [2] [µM]	IC50 (HTT CJ mRNA) [µM]	IC50 (SMN2 CJ mRNA) [µM]
Cc1cn2nc(NC(=O)c3cccc4c(C5CCNCC5)cnnc34)cc(C)c2n1 [Compound 112, N-[2,8-dimethylimidazo[1,2-b]pyridazin-6-yl]-4-(piperidin-4-yl)cinnoline-8-carboxamide]	1 to 10	> 10	> 10	–	–
Cc1cn2nc(-c3cccc4c3CCC(=O)N4C3CCNCC3)cc(C)c2n1 [Compound 185]	–	1 to 10	> 10	1 to 10	> 10
Cc1cn2cc(NC(=O)c3cccc4c(C5CCNCC5)cnnc34)cc(F)c2n1 [Compound 114, N-[8-fluoro-2-methylimidazo[1,2-a]pyridin-6-yl]-4-(piperidin-4-yl)cinnoline-8-carboxamide]	–	> 10	> 10	–	–
Cc1cn2nc(-c3cccc4c(N5CCNCC5)nncc34)cc(C)c2n1 [Compound 101, 5-[2,8-dimethylimidazo[1,2-b]pyridazin-6-yl]-1-(piperazin-1-yl)phthalazine]	1 to 10	> 10	1 to 10	–	–
Cc1cn2cc(NC(=O)c3cccc4c(N(C)C5CCN(C)CC5)cnnc34)cc(F)c2n1 [Compound 213]	1 to 10	1 to 10	1 to 10	1 to 10	1 to 10
Cc1cn2cc(NC(=O)c3cccc4c(N(C)C5CC(C)(C)NC(C)(C)C5)cnnc34)cc(F)c2n1 [Compound 184, N-[8-fluoro-2-methylimidazo[1,2-a]pyridin-6-yl]-4-[methyl(2,2,6,6-tetramethylpiperidin-4-yl)amino]cinnoline-8-carboxamide]	1 to 10	1 to 10	1 to 10	1 to 10	1 to 10
Cc1cn2cc(NC(=O)c3cccc4c(N5CCNCC5)cnnc34)cc(F)c2n1 [Compound 113, N-[8-fluoro-2-methylimidazo[1,2-a]pyridin-6-yl]-4-(piperazin-1-yl)cinnoline-8-carboxamide]	< 0.1	> 10	1 to 10	> 10	< 0.1
Cc1cn2nc(-c3cccc4c(C5CCNCC5)nncc34)cc(C)c2n1 [Compound 104, 5-[2,8-dimethylimidazo[1,2-b]pyridazin-6-yl]-1-(piperidin-4-yl)phthalazine]	–	–	> 10	–	–
Cc1cn2cc(NC(=O)c3cccc4c(N5CCC(NC(C)(C)C)C5)cnnc34)cc(F)c2n1 (stereo not shown) [Compound 122, 4-[3-(tert-butylamino)pyrrolidin-1-yl]-N-[8-fluoro-2-methylimidazo[1,2-a]pyridin-6-yl]cinnoline-8-carboxamide]	–	> 10	> 10	–	–
COc1cc(N2CCNCC2)c2cccc(-c3cc(C)c4nc(C)cn4n3)c2n1 [Compound 134, 8-[2,8-dimethylimidazo[1,2-b]pyridazin-6-yl]-2-methoxy-4-(piperazin-1-yl) quinoline]	1 to 10	1 to 10	1 to 10	–	–
Cc1cn2cc(-c3cccc4c(N5CCNCC5)nncc34)nc2c(C)n1 [Compound 100, 5-[6,8-dimethylimidazo[1,2-a]pyrazin-2-yl]-1-(piperazin-1-yl)phthalazine]	–	> 10	> 10	–	–
Cc1cn2nc(NC(=O)c3cccc4c(N5CCNCC5)cnnc34)cc(C)c2n1 [Compound 111, N-[2,8-dimethylimidazo[1,2-b]pyridazin-6-yl]-4-(piperazin-1-yl)cinnoline-8-carboxamide]	–	> 10	> 10	–	–
COc1cc(N2CCNCC2)c2cccc(-c3cc(F)c4nc(C)cn4c3)c2n1 [Compound 138, 8-[8-fluoro-2-methylimidazo[1,2-a]pyridin-6-yl]-2-methoxy-4-(piperazin-1-yl) quinoline]	> 10	> 10	> 10	> 10	0.1 to 1
c1cc(-c2cn[nH]c2)c2cnnc(N3CCNCC3)c2c1 [Compound 102, 1-(piperazin-1-yl)-5-(1H-pyrazol-4-yl)phthalazine]	–	> 10	> 10	> 10	> 10
Cc1cn2cc(-c3cccc4c(C5=CCNCC5)nncc34)nc2c(C)n1 [Compound 109, 5-[6,8-dimethylimidazo[1,2-a]pyrazin-2-yl]-1-(1,2,3,6-tetrahydropyridin-4-yl)phthalazine]	1 to 10	> 10	> 10	–	–
Cc1cn2cc(-c3cccc4c(N5CCCCC5)nncc34)nc2c(C)n1 [Compound 108, 5-[6,8-dimethylimidazo[1,2-a]pyrazin-2-yl]-1-(piperidin-1-yl)phthalazine]	1 to 10	> 10	> 10	–	–
